Assay results reported in PMC12627627 (Nature Communications, 2025).
Values joined by “and” are separate entries in the source; they are usually repeats but may differ in a detail not shown here. Identical values can stand only once.

Experiments:
RyR1 R2163C = biological target: T1, RyR1 R2163C (Oryctolagus cuniculus, UniProt P11716, R2163C); experiment: Time-lapse [Ca2+]ER measurement, HEK293 cells expressing RyR1 R2163C; assay type: cell-based; details: for ER luminal [Ca2+] change (F/F0): Fig. 1B source data, single replicates
T1 construct: expressed in transfected cells
Procedure: HEK293 cells stably expressing R-CEPIA1er and RyRs (WT RyR1, RyR1-W881A, RyR1-W995A, RyR1-R2163C, and WT RyR2)[26],[27] were used in this study. Briefly, the cells were seeded at a density of 2 × 10⁴ cells/well in a 96-well black, clear-bottom plate (Corning). Doxycycline (2 µg/mL) was added 12 h after seeding, and the medium was replaced 24 h later with HEPES-buffered Krebs solution (5 mM HEPES, pH 7.4; 140 mM NaCl; 5 mM KCl; 2 mM CaCl₂; 1 mM MgCl₂; and 11 mM glucose). Fluorescence measurements were conducted using a FlexStation 3 fluorometer (Molecular Devices) at 37 °C. The R-CEPIA1er was excited at 560 nm, emitted at 610 nm, and captured every 10 seconds over 300 seconds. […] The fluorescence changes (F/F₀) were calculated by dividing the average fluorescence of the last 100 seconds (F) by that of the first 100 seconds (F₀). All measurements were performed in triplicate.

R12 domain of RyR1 = biological target: T2, R12 domain of RyR1 (Homo sapiens, UniProt P21817); experiment: ITC, R12 domain of RyR1; assay type: binding
T2 construct: RyR1 854–1054, RyR2 865–1065, RyR3 853–1053; made in house; host or cells: E. coli BL21 (DE3)
T2 sequence (P21817 854-1054): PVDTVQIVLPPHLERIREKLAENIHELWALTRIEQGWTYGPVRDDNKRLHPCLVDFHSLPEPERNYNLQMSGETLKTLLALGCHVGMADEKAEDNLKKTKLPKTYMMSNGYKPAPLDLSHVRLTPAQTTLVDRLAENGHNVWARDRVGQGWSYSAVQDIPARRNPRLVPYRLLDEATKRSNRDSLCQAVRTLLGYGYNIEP
Procedure: (§1) The plasmids were subsequently transformed into E. coli BL21 (DE3) cells (NEB, USA) and cultured in Luria-Bertani (LB) media at 37 °C. Protein expression was induced with 0.4 mM isopropyl β-D-thiogalactoside (IPTG) when the optical density (OD)600 reached ~0.8, followed by incubation at 18 °C for 12 h. The cells were harvested via centrifugation at 5,000 × g for 15 min at 4 °C and homogenized in Buffer A (10 mM HEPES, pH 7.4, 250 mM KCl) supplemented with 25 µg/mL DNaseI, 25 µg/mL lysozyme, 1 mM phenylmethylsulfonyl fluoride (PMSF), and 20 mM imidazole. The homogenate was centrifuged at 12,000 × g for 45 min, and the supernatant was filtered through a syringe filter (0.22 µm).
(§2) Purified R12 domain protein from the three RyR isoforms, fused with hexahistidine-tagged MBP (HMT-R12) was dialyzed overnight at 4 °C in ITC buffer (200 mM HEPES, pH 7.4, 150 mM KCl). ITC experiments were performed using a PEAQ-ITC instrument (Malvern, UK) at 25 °C with a stirring speed of 750 rpm. […] For the ternary binding experiments, 500 μM or 5 mM AMP-PCP/ADP was preincubated with both the titrants and titrates. […] The data was fit to a one-site fitting model after background buffer subtraction. The RyR1 R12 mutants were generated using a QuikChange mutagenesis kit (Stratagene) according to the manufacturer’s protocol, with primer sequences listed in Supplementary Table 3.

R12 domain of RyR2 = biological target: T3, R12 domain of RyR2 (Homo sapiens, UniProt Q92736); experiment: ITC, R12 domain of RyR2; assay type: binding; details: absence or presence of AMP-PCP or ADP
T3 construct: RyR1 854–1054, RyR2 865–1065, RyR3 853–1053; made in house; host or cells: E. coli BL21 (DE3)
T3 sequence (Q92736 865-1065): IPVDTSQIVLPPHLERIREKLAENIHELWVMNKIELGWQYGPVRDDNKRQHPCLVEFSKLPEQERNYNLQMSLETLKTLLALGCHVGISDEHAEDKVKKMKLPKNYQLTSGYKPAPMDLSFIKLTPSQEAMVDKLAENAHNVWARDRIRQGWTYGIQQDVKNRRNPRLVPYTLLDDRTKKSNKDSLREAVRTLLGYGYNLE
Procedure: as §1, §2

R12 domain of RyR3 = biological target: T4, R12 domain of RyR3 (Homo sapiens, UniProt Q15413); experiment: ITC, R12 domain of RyR3; assay type: binding
T4 construct: RyR1 854–1054, RyR2 865–1065, RyR3 853–1053; made in house; host or cells: E. coli BL21 (DE3)
T4 sequence (Q15413 853-1053): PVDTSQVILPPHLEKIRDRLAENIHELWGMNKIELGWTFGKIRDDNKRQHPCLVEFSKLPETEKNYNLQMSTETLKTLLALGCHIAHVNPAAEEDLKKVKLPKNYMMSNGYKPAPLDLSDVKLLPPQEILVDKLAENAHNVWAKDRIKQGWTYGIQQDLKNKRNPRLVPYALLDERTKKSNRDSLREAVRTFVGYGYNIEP
Procedure: as §1, §2

O=C1CN(/N=C/c2ncc(-c3ccc(Br)cc3)o2)C(=O)N1 [AZU, Azumolene]
ER luminal [Ca2+] change (F/F0) (RyR1 R2163C; concentration 0.001 (unit not given)): 0.9854 and 0.9883 and 0.9973 | ER luminal [Ca2+] change (F/F0) (RyR1 R2163C; concentration 0.01 (unit not given)): 0.9658 and 0.9819 and 0.982 | ER luminal [Ca2+] change (F/F0) (RyR1 R2163C; concentration 0.05 (unit not given)): 1.099 and 1.026 and 0.9992 | ER luminal [Ca2+] change (F/F0) (RyR1 R2163C; concentration 0.1 (unit not given)): 1.103 and 1.117 and 1.012 | ER luminal [Ca2+] change (F/F0) (RyR1 R2163C; concentration 0.5 (unit not given)): 1.22 and 1.241 and 1.23 | ER luminal [Ca2+] change (F/F0) (RyR1 R2163C; concentration 1 (unit not given)): 1.3399 and 1.372 and 1.356 | ER luminal [Ca2+] change (F/F0) (RyR1 R2163C; concentration 5 (unit not given)): 1.6271 and 1.651 and 1.748 | ER luminal [Ca2+] change (F/F0) (RyR1 R2163C; concentration 10 (unit not given)): 1.557 and 1.7194 and 1.724 | ER luminal [Ca2+] change (F/F0) (RyR1 R2163C; concentration 50 (unit not given)): 1.618 and 1.707 and 1.756 | ER luminal [Ca2+] change (F/F0) (RyR1 R2163C; concentration 100 (unit not given)): 1.541 and 1.665 and 1.689 | IC50 (RyR1 R2163C; HEK293 cells stably expressing RyR1 R2163C, ER Ca2+ fluorescence, dose-dependent): 410 nM | Kd (R12 domain of RyR1; RyR1 R12 + 500 µM ADP): 241 ± 31 nM | No of Sites (N) (R12 domain of RyR1; RyR1 R12 + 500 µM ADP): 0.652 ± 0.16 | ΔH (R12 domain of RyR1; RyR1 R12 + 500 µM ADP): -7.92 ± 0.91 kcal/mol | −TΔS (R12 domain of RyR1; RyR1 R12 + 500 µM ADP): -1.11 kcal/mol | No of Sites (N) (R12 domain of RyR1; RyR1 R12 + 500 µM AMP-PCP): 0.904 ± 0.52 | ΔH (R12 domain of RyR1; RyR1 R12 + 500 µM AMP-PCP): -2.99 ± 0.47 kcal/mol | −TΔS (R12 domain of RyR1; RyR1 R12 + 500 µM AMP-PCP): -6.48 kcal/mol | Kd (R12 domain of RyR1; RyR1 R12 + 5 mM ADP): 60 ± 12 nM | No of Sites (N) (R12 domain of RyR1; RyR1 R12 + 5 mM ADP): 0.489 ± 0.28 | ΔH (R12 domain of RyR1; RyR1 R12 + 5 mM ADP): -8.45 ± 0.94 kcal/mol | −TΔS (R12 domain of RyR1; RyR1 R12 + 5 mM ADP): -1.40 kcal/mol | Kd (R12 domain of RyR1; RyR1 R12 + 5 mM AMP-PCP): 46 ± 14 nM | No of Sites (N) (R12 domain of RyR1; RyR1 R12 + 5 mM AMP-PCP): 0.718 ± 0.50 | ΔH (R12 domain of RyR1; RyR1 R12 + 5 mM AMP-PCP): -7.75 ± 0.12 kcal/mol | −TΔS (R12 domain of RyR1; RyR1 R12 + 5 mM AMP-PCP): -2.26 kcal/mol | No of Sites (N) (R12 domain of RyR1; RyR1 R12, no nucleotide): 0.810 ± 0.21 | ΔH (R12 domain of RyR1; RyR1 R12, no nucleotide): -80 kcal/mol | −TΔS (R12 domain of RyR1; RyR1 R12, no nucleotide): 75.60 kcal/mol | Kd (R12 domain of RyR1; RyR1 R12, no nucleotide, ITC 25 °C): 595000 nM and 596000 nM | binding to RyR2 R12 domain by ITC (R12 domain of RyR2): neither DAN nor AZU exhibited detectable binding | Kd (R12 domain of RyR3; RyR3 R12 + 500 µM ADP): 362 ± 86 nM | No of Sites (N) (R12 domain of RyR3; RyR3 R12 + 500 µM ADP): 0.613 ± 0.82 | ΔH (R12 domain of RyR3; RyR3 R12 + 500 µM ADP): -6.16 ± 0.15 kcal/mol | −TΔS (R12 domain of RyR3; RyR3 R12 + 500 µM ADP): -2.63 kcal/mol | Kd (R12 domain of RyR3; RyR3 R12 + 500 µM AMP-PCP): 111 ± 25 nM | No of Sites (N) (R12 domain of RyR3; RyR3 R12 + 500 µM AMP-PCP): 0.760 ± 0.45 | ΔH (R12 domain of RyR3; RyR3 R12 + 500 µM AMP-PCP): -7.90 ± 0.11 kcal/mol | −TΔS (R12 domain of RyR3; RyR3 R12 + 500 µM AMP-PCP): -1.59 kcal/mol | Kd (R12 domain of RyR3; RyR3 R12 + 5 mM ADP): 52 ± 13 nM | No of Sites (N) (R12 domain of RyR3; RyR3 R12 + 5 mM ADP): 0.813 ± 0.48 | ΔH (R12 domain of RyR3; RyR3 R12 + 5 mM ADP): -7.35 ± 0.11 kcal/mol | −TΔS (R12 domain of RyR3; RyR3 R12 + 5 mM ADP): -2.59 kcal/mol | Kd (R12 domain of RyR3; RyR3 R12 + 5 mM AMP-PCP): 48 ± 21 nM | No of Sites (N) (R12 domain of RyR3; RyR3 R12 + 5 mM AMP-PCP): 0.854 ± 0.21 | ΔH (R12 domain of RyR3; RyR3 R12 + 5 mM AMP-PCP): -7.80 ± 0.15 kcal/mol | −TΔS (R12 domain of RyR3; RyR3 R12 + 5 mM AMP-PCP): -2.18 kcal/mol | No of Sites (N) (R12 domain of RyR3; RyR3 R12, no nucleotide): 1.02 ± 0.41 | ΔH (R12 domain of RyR3; RyR3 R12, no nucleotide): -80 kcal/mol | −TΔS (R12 domain of RyR3; RyR3 R12, no nucleotide): 75.40 kcal/mol | Kd (R12 domain of RyR3; RyR3 R12, no nucleotide, ITC 25 °C): 394000 ± 7050 nM
